Reference: patent publication US20260108546A1 (ELI LILLY AND COMPANY, priority 2024, published 2026)

Target: T1, hGIP-R (Homo sapiens, UniProt P48546)
T1 construct: expressed in transfected cells; host or cells: HEK-293 clonal cell lines
T1 sequence (P48546 22-466): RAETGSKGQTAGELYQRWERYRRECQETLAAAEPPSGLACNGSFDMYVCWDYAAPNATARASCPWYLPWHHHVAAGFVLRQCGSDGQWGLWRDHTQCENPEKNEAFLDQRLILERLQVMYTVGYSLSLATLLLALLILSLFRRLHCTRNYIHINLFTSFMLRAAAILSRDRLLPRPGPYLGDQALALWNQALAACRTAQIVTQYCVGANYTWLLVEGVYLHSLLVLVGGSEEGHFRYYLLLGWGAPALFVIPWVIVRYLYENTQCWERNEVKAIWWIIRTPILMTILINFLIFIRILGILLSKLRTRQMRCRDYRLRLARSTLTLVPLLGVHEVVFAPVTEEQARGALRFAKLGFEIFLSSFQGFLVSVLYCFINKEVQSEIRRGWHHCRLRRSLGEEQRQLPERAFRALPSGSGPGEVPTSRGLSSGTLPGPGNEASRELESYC
Test: Functional hGIP-R Assay (cAMP formation, HTRF)
Type: cell-based
Conditions: for Emax: cAMP efficacy, percent of maximal response to GIP(1-42)OH, 37° C., 0.1% bovine casein, arithmetic mean ± SEM; for EC50: cAMP potency, HEK-293 cells expressing hGIP-R, incubated at 37° C. in the presence of 0.1% bovine casein, geometric mean, read-out: Human GIP-R EC50, nM (SEM, n)
How it was run: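 Relative EC50 and Emax came from four-parameter logistic fits of cAMP as a percent of the human GIP (1-42) OH maximal response. The cAMP was measured by competitive HTRF after 30 min, 37 °C compound exposure of hGIP-R HEK-293 clones in IBMX (250 μM)-containing medium.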

| Structure (SMILES) | Emax | EC50 |
| --- | --- | --- |
| CC(C)(Cc1ccc(F)cn1)NC(=O)[C@@H](Cc1cnc2ncccn12)NC(=O)[C@H]1C[C@@H]1c1ccc(-c2cnc3nc(C(F)(F)F)cn3c2)cc1 [Example 85, (1S,2S)-N-((R)-1-((1-(5-Fluoropyridin-2-yl)-2-methylpropan-2-yl)amino)-3-(imidazo[1,2-a]pyrimidin-3-yl)-1-oxopropan-2-yl)-2-(4-(2-(trifluoromethyl)imidazo[1,2-a]pyrimidin-6-yl)phenyl)cyclopropane-1-carboxamide] | 87 ± 0.761% | 41 nM |
| CC(C)(Cc1ccc(F)cc1)NC(=O)[C@@H](Cc1cnc2ncccn12)NC(=O)[C@H]1C[C@@H]1c1ccc(-c2cnc3nccn3c2)cc1 [Example 87, (1S,2S)-N-((R)-1-((1-(4-Fluorophenyl)-2-methylpropan-2-yl)amino)-3-(imidazo[1,2-a]pyrimidin-3-yl)-1-oxopropan-2-yl)-2-(4-(imidazo[1,2-a]pyrimidin-6-yl)phenyl)cyclopropane-1-carboxamide] | 71.1 ± 9.09% | 52.7 nM |
| CN(C(=O)[C@H]1C[C@@H]1c1ccc(-c2cnc3nn(C(F)F)cc3c2)cc1)[C@H](Cc1cnn(C)c1)C(=O)NC(C)(C)Cn1nc(C(F)(F)F)cc1-c1ccc(=O)n(C)c1 [Example 88, (1S,2S)-2-(4-(2-(Difluoromethyl)-2H-pyrazolo[3,4-b]pyridin-5-yl)phenyl)-N-methyl-N-((R)-1-((2-methyl-1-(5-(1-methyl-6-oxo-1,6-dihydropyridin-3-yl)-3-(trifluoromethyl)-1H-pyrazol-1-yl)propan-2-yl)amino)-3-(1-methyl-1H-pyrazol-4-yl)-1-oxopropan-2-yl)cyclopropane-1-carboxamide] | 116% | 89 nM |
| CN(C(=O)[C@H]1C[C@@H]1c1ccc(-c2cnc3nn(C(F)(F)F)cc3c2)cc1)[C@H](Cc1cnn(C)c1)C(=O)NC(C)(C)Cn1nc(C(F)(F)F)cc1-c1ccc(=O)n(C)c1 [Example 89, (1S,2S)-N-Methyl-N-((R)-1-((2-methyl-1-(5-(1-methyl-6-oxo-1,6-dihydropyridin-3-yl)-3-(trifluoromethyl)-1H-pyrazol-1-yl)propan-2-yl)amino)-3-(1-methyl-1H-pyrazol-4-yl)-1-oxopropan-2-yl)-2-(4-(2-(trifluoromethyl)-2H-pyrazolo[3,4-b]pyridin-5-yl)phenyl)cyclopropane-1-carboxamide] | 32.3% | 152 nM |
| COCc1cn2cc(-c3ccc([C@H]4C[C@@H]4C(=O)N(C)[C@H](Cc4cnn(C)c4)C(=O)NC(C)(C)Cn4nc(C(F)(F)F)cc4-c4ccc(=O)n(C)c4)cc3)cnc2n1 [Example 90, (1S,2S)-2-(4-(2-(Methoxymethyl)imidazo[1,2-a]pyrimidin-6-yl)phenyl)-N-methyl-N-((R)-1-((2-methyl-1-(5-(1-methyl-6-oxo-1,6-dihydropyridin-3-yl)-3-(trifluoromethyl)-1H-pyrazol-1-yl)propan-2-yl)amino)-3-(1-methyl-1H-pyrazol-4-yl)-1-oxopropan-2-yl)cyclopropane-1-carboxamide] | 120% | 45.5 nM |
| Cc1cn2cc(-c3ccc([C@H]4C[C@@H]4C(=O)N(C)[C@H](Cc4cnn(C)c4)C(=O)NC(C)(C)Cn4nc(C(F)(F)F)cc4-c4ccc(=O)n(C)c4)cc3)cnc2n1 [Example 91, (1S,2S)-N-Methyl-N-((R)-1-((2-methyl-1-(5-(1-methyl-6-oxo-1,6-dihydropyridin-3-yl)-3-(trifluoromethyl)-1H-pyrazol-1-yl)propan-2-yl)amino)-3-(1-methyl-1H-pyrazol-4-yl)-1-oxopropan-2-yl)-2-(4-(2-methylimidazo[1,2-a]pyrimidin-6-yl)phenyl)cyclopropane-1-carboxamide] | 114% | 60.9 nM |
| Cn1cc(C[C@@H](NC(=O)[C@H]2C[C@@H]2c2ccc(-c3cnc4nn(C)cc4c3)cc2)C(=O)NC(C)(C)Cn2nc(C(F)(F)F)cc2-c2cn[nH]n2)cn1 [Example 92, (1S,2S)-N—((R)-1-((1-(5-(2H-1,2,3-Triazol-4-yl)-3-(trifluoromethyl)-1H-pyrazol-1-yl)-2-methylpropan-2-yl)amino)-3-(1-methyl-1H-pyrazol-4-yl)-1-oxopropan-2-yl)-2-(4-(2-methyl-2H-pyrazolo[3,4-b]pyridin-5-yl)phenyl)cyclopropane-1-carboxamide] | 126 ± 1.93% | 47.1 nM |
| Cn1cc(C[C@H](C(=O)NC(C)(C)Cn2nc(C(F)(F)F)cc2-c2cn[nH]n2)N2CC[C@@]3(C[C@@H]3c3ccc(-c4cnc5nn(C)cc5c4)cc3)C2=O)cn1 [Example 95, (R)—N-(1-(5-(2H-1,2,3-Triazol-4-yl)-3-(trifluoromethyl)-1H-pyrazol-1-yl)-2-methylpropan-2-yl)-3-(1-methyl-1H-pyrazol-4-yl)-2-((1R,3R)-1-(4-(2-methyl-2H-pyrazolo[3,4-b]pyridin-5-yl)phenyl)-4-oxo-5-azaspiro[2.4]heptan-5-yl)propanamide] | 90 ± 2.84% | 48.1 nM |
| Cn1cc(C[C@@H](NC(=O)[C@H]2C[C@@H]2c2ccc(-c3cnc4nn(C)cc4c3)cc2)C(=O)NC(C)(C)Cn2nc(C(F)(F)F)cc2-c2cnn3c2CNCC3)cn1 [Example 96, (1S,2S)-N—((R)-1-((2-methyl-1-(5-(4,5,6,7-tetrahydropyrazolo[1,5-a]pyrazin-3-yl)-3-(trifluoromethyl)-1H-pyrazol-1-yl)propan-2-yl)amino)-3-(1-methyl-1H-pyrazol-4-yl)-1-oxopropan-2-yl)-2-(4-(2-methyl-2H-pyrazolo[3,4-b]pyridin-5-yl)phenyl)cyclopropane-1-carboxamide] | 104 ± 4.57% | 169 nM |
| Cn1cc(C[C@@H](NC(=O)[C@H]2C[C@@H]2c2ccc(NC(=O)Nc3ccc(F)cc3)cc2)C(=O)NC(C)(C)Cc2ccc(F)cc2)cn1 [Example 97, (1S,2S)-N—((R)-1-((1-(4-Fluorophenyl)-2-methylpropan-2-yl)amino)-3-(1-methyl-1H-pyrazol-4-yl)-1-oxopropan-2-yl)-2-(4-(3-(4-fluorophenyl)ureido)phenyl)cyclopropane-1-carboxamide] | 96.6 ± 4.57% | 38.6 nM |

Now from value to compound:

| Emax | EC50 | Structure (SMILES) |
| --- | --- | --- |
| 89.7% | 37.8 nM | CC(C)(Cn1cc(C(F)(F)F)cn1)NC(=O)[C@@H](Cc1cnc2ncccn12)NC(=O)[C@H]1C[C@@H]1c1ccc(-c2cnc3nn(C4CCC4)cc3c2)cc1 [Example 84, (1S,2S)-2-(4-(2-Cyclobutyl-2H-pyrazolo[3,4-b]pyridin-5-yl)phenyl)-N-((R)-3-(imidazo[1,2-a]pyrimidin-3-yl)-1-((2-methyl-1-(4-(trifluoromethyl)-1H-pyrazol-1-yl)propan-2-yl)amino)-1-oxopropan-2-yl)cyclopropane-1-carboxamide] |
| 71.1 ± 2.32% | 10.2 nM | CC(C)(Cc1ccc(F)cc1)NC(=O)[C@@H](Cc1cnc2ncccn12)NC(=O)[C@H]1C[C@@H]1c1ccc(-c2cnc3nc(C(F)(F)F)cn3c2)cc1 [Example 86, (1S,2S)-N-((R)-1-((1-(4-Fuorophenyl)-2-methylpropan-2-yl)amino)-3-(imidazo[1,2-a]pyrimidin-3-yl)-1-oxopropan-2-yl)-2-(4-(2-(trifluoromethyl)imidazo[1,2-a]pyrimidin-6-yl)phenyl)cyclopropane-1-carboxamide] |
| 115 ± 1.41% | 15.3 nM | Cn1cc(C[C@@H](NC(=O)[C@H]2C[C@@H]2c2ccc(-c3cnc4nn(C)cc4c3)cc2F)C(=O)NC(C)(C)Cn2nc(C(F)(F)F)cc2-c2cn[nH]n2)cn1 [Example 93, (1S,2S)-N—((R)-1-((1-(5-(2H-1,2,3-Triazol-4-yl)-3-(trifluoromethyl)-1H-pyrazol-1-yl)-2-methylpropan-2-yl)amino)-3-(1-methyl-1H-pyrazol-4-yl)-1-oxopropan-2-yl)-2-(2-fluoro-4-(2-methyl-2H-pyrazolo[3,4-b]pyridin-5-yl)phenyl)cyclopropane-1-carboxamide] |
| 101% | 35.4 nM | Cc1ccc2cc(-c3ccc([C@H]4C[C@@H]4C(=O)N[C@H](Cc4cnn(C)c4)C(=O)NC(C)(C)Cn4nc(C(F)(F)F)cc4-c4cn[nH]n4)cc3)cnc2n1 [Example 94, (1S,2S)-N—((R)-1-((1-(5-(2H-1,2,3-Triazol-4-yl)-3-(trifluoromethyl)-1H-pyrazol-1-yl)-2-methylpropan-2-yl)amino)-3-(1-methyl-1H-pyrazol-4-yl)-1-oxopropan-2-yl)-2-(4-(7-methyl-1,8-naphthyridin-3-yl)phenyl)cyclopropane-1-carboxamide] |
| 110 ± 3.22% | 35.5 nM | Cn1cc(C[C@H](C(=O)NC(C)(C)Cn2nc(C(F)(F)F)cc2-c2ccc(=O)n(C)c2)N2CC[C@@]3(C[C@@H]3c3ccc(-c4cnc5nn(C)cc5c4)cc3)C2=O)cn1 [Example 98, (R)—N-(2-Methyl-1-(5-(1-methyl-6-oxo-1,6-dihydropyridin-3-yl)-3-(trifluoromethyl)-1H-pyrazol-1-yl)propan-2-yl)-3-(1-methyl-1H-pyrazol-4-yl)-2-((1R,3R)-1-(4-(2-methyl-2H-pyrazolo[3,4-b]pyridin-5-yl)phenyl)-4-oxo-5-azaspiro[2.4]heptan-5-yl)propanamide] |
